Results from patent US12187742B2 (XRAD Therapeutics, Inc., priority 2018, dated 2025).
pIC50: −log10 of the molar value. Where a name gives a salt, the structure may show the parent alone.

target: ATM (Homo sapiens (Human), UniProt Q13315); assay: ATM in Cell Western Assay (pKAP1 in etoposide-treated MCF-7 cells); assay type: cell-based; settings: pKAP1 in etoposide-treated MCF-7 cells
How it was run: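 Cells received compounds in a 10-dose, 3-fold series from a 1 μM final top concentration, then 100 μM etoposide, for 1 hr at 37° C. They were then fixed with paraformaldehyde and permeabilized with 0.1% Triton X-100. After immunostaining, plates were scanned on an infrared imager.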

ATM, sequence (Q13315 whole entry): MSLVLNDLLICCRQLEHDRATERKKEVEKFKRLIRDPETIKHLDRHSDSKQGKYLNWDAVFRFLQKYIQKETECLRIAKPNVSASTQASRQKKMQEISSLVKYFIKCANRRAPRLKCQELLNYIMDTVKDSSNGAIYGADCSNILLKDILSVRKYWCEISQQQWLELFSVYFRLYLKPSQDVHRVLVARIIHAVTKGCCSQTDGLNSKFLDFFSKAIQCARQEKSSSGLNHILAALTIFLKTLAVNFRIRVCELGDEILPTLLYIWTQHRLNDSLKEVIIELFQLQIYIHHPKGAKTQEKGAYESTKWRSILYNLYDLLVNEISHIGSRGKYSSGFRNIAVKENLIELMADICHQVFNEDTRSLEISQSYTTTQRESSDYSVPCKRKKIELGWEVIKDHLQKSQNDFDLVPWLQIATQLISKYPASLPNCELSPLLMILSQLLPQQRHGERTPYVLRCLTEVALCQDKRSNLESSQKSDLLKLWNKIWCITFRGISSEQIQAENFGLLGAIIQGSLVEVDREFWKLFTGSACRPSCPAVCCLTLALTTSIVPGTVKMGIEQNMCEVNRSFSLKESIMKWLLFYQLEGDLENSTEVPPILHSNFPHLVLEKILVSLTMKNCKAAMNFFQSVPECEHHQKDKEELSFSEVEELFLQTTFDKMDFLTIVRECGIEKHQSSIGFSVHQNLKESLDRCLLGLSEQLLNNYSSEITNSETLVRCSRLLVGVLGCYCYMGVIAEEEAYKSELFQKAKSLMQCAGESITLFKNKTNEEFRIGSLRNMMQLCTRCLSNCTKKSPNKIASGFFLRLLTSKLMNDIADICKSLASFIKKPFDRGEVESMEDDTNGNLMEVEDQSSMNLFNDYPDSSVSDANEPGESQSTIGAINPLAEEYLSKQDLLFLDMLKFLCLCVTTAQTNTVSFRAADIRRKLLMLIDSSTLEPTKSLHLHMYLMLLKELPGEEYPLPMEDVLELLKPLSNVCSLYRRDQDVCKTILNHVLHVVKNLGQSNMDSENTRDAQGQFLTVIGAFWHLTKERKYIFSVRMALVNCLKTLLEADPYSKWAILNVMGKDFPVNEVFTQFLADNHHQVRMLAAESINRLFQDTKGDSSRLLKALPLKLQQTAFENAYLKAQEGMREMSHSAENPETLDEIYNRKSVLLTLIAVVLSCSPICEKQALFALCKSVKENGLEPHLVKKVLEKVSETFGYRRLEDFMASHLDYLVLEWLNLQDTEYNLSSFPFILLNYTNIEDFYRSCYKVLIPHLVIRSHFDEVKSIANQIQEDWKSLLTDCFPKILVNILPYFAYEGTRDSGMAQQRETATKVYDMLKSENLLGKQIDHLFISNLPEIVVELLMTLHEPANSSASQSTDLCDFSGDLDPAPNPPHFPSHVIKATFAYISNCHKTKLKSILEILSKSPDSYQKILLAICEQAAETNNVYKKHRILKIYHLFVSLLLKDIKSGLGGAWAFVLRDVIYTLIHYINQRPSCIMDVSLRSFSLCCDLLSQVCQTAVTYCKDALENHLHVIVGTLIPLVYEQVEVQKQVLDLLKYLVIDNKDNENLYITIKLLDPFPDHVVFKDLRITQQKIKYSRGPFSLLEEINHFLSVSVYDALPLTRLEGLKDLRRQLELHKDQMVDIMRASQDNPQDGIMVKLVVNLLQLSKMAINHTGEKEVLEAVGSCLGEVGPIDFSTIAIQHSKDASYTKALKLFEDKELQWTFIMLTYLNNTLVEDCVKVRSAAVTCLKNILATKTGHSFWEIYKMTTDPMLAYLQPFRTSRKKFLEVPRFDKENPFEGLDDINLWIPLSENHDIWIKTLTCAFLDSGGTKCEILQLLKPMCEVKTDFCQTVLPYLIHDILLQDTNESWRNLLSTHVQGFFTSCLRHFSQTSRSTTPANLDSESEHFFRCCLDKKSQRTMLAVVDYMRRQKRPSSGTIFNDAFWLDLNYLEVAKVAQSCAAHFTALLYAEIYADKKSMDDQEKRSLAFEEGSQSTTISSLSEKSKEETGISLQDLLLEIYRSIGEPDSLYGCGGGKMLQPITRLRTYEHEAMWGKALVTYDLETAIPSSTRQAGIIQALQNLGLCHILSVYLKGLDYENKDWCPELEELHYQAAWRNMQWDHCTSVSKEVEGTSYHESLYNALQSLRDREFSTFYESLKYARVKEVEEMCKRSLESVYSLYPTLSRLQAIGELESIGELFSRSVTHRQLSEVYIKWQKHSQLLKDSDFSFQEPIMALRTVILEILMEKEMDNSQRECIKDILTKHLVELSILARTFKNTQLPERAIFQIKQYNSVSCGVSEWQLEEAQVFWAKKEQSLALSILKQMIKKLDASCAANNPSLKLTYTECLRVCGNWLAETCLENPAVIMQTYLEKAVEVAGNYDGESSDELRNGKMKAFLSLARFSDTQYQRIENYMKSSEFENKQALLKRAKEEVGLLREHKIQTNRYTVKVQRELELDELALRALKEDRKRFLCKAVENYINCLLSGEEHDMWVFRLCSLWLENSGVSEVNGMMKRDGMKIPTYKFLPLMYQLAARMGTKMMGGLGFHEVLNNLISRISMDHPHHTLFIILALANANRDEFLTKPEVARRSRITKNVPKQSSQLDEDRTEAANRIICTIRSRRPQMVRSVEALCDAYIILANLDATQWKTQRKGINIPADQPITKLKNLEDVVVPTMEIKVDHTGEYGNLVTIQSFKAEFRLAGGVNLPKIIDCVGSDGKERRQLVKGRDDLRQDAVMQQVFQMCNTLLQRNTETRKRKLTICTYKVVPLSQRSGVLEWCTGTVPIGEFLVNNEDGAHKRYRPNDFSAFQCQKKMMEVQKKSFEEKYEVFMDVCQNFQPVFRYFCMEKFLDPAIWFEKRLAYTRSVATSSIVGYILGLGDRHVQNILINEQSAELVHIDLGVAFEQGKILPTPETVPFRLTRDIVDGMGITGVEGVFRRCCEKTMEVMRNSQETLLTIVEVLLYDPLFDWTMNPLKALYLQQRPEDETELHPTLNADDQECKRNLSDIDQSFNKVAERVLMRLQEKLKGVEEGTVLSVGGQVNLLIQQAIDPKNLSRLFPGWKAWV

Compared with CC(C)NCCOc1ncc(-c2cc3c4c(cnc3cc2F)N(C)C(=O)C42CN(C3CCOCC3)C2)cc1NS(C)(=O)=O [Example 500, N-(5-(7′-Fluoro-3′-methyl-2′-oxo-1-(tetrahydro-2H-pyran-4-yl)-2′,3′-dihydrospiro[azetidine-3,1′-pyrrolo[2,3-c]quinolin]-8′-yl)-2-(2-(isopropylamino)ethoxy)pyridin-3-yl)methanesulfonamide hydrochloride], CC(C)NCCOc1ncc(-c2cc3c4c(cnc3cc2F)N(C)C(=O)C42CN(C3CCNCC3)C2)cc1NS(C)(=O)=O [Example 501, N-(5-(7′-Fluoro-3′-methyl-2′-oxo-1-(piperidin-4-yl)-2′,3′-dihydrospiro[azetidine-3,1′-pyrrolo[2,3-c]quinolin]-8′-yl)-2-(2-(isopropylamino)ethoxy)pyridin-3-yl)methanesulfonamide] is lower in pIC50: 7.00 to 9.00 for the first, under 7.00 for the second.

CC(C)NCCOc1ncc(-c2cc3c4c(cnc3cc2F)N(C)C(=O)C42CN(C3CCN(C)CC3)C2)cc1NS(C)(=O)=O [Example 502, N-(5-(7′-Fluoro-3′-methyl-1-(1-methylpiperidin-4-yl)-2′-oxo-2′,3′-dihydrospiro[azetidine-3,1′-pyrrolo[2,3-c]quinolin]-8′-yl)-2-(2-(isopropylamino)ethoxy)pyridin-3-yl)methanesulfonamide] and CC(=O)N1CCC(N2CC3(C2)C(=O)N(C)c2cnc4cc(F)c(-c5cnc(OCCNC(C)C)c(NS(C)(=O)=O)c5)cc4c23)CC1 [Example 503, N-(5-(1-(1-Acetylpiperidin-4-yl)-7′-fluoro-3′-methyl-2′-oxo-2′,3′-dihydrospiro[azetidine-3,1′-pyrrolo[2,3-c]quinolin]-8′-yl)-2-(2-(isopropylamino)ethoxy)pyridin-3-yl)methanesulfonamide] cannot be ordered by pIC50: under 7.00 for the first, under 7.00 for the second.

CC(C)NCCOc1ncc(-c2cc3c4c(cnc3cc2F)N(C)C(=O)C42CN([C@H]3CC[C@@H](O)CC3)C2)cc1NS(C)(=O)=O [Example 504, N-(5-(7′-Fluoro-1-(cis-4-hydroxycyclohexyl)-3′-methyl-2′-oxo-2′,3′-dihydrospiro[azetidine-3,1′-pyrrolo[2,3-c]quinolin]-8′-yl)-2-(2-(isopropylamino)ethoxy)pyridin-3-yl)methanesulfonamide] and CC(C)NCCOc1ncc(-c2cc3c4c(cnc3cc2F)N(C)C(=O)C42CN([C@H]3CC[C@H](O)CC3)C2)cc1NS(C)(=O)=O [Example 505, N-(5-(7′-Fluoro-1-(trans-4-hydroxycyclohexyl)-3′-methyl-2′-oxo-2′,3′-dihydrospiro[azetidine-3,1′-pyrrolo[2,3-c]quinolin]-8′-yl)-2-(2-(isopropylamino)ethoxy)pyridin-3-yl)methanesulfonamide] cannot be ordered by pIC50: under 7.00 for the first, under 7.00 for the second.

Compared with CC(C)NCCOc1ncc(-c2cc3c4c(cnc3cc2F)N(C)C(=O)C42CN(CCO)C2)cc1NS(C)(=O)=O [Example 506, N-(5-(7′-Fluoro-1-(2-hydroxyethyl)-3′-methyl-2′-oxo-2′,3′-dihydrospiro[azetidine-3,1′-pyrrolo[2,3-c]quinolin]-8′-yl)-2-(2-(isopropylamino)ethoxy)pyridin-3-yl)methanesulfonamide], CC(C)NCCOc1ncc(-c2cc3c4c(cnc3cc2F)N(C)C(=O)C42CN(C[C@@H](O)CO)C2)cc1NS(C)(=O)=O [Example 509, (R)-N-(5-(1-(2,3-Dihydroxypropyl)-7′-fluoro-3′-methyl-2′-oxo-2′,3′-dihydrospiro[azetidine-3,1′-pyrrolo[2,3-c]quinolin]-8′-yl)-2-(2-(isopropylamino)ethoxy)pyridin-3-yl)methanesulfonamide] is lower in pIC50: 7.00 to 9.00 for the first, under 7.00 for the second. The first is the more potent here.

COCCN1CC2(C1)C(=O)N(C)c1cnc3cc(F)c(-c4cnc(OCCNC(C)C)c(NS(C)(=O)=O)c4)cc3c12 [Example 507, N-(5-(7′-Fluoro-1-(2-methoxyethyl)-3 methyl-2′-oxo-2′,3′-dihydrospiro[azetidine-3,1′-pyrrolo[2,3-c]quinolin]-8′-yl)-2-(2-(isopropylamino)ethoxy)pyridin-3-yl)methanesulfonamide] and CC(C)NCCOc1ncc(-c2cc3c4c(cnc3cc2F)N(C)C(=O)C42CN(CC(F)F)C2)cc1NS(C)(=O)=O [Example 508, N-(5-(1-(2,2-Difluoroethyl)-7′-fluoro-3′-methyl-2′-oxo-2′,3′-dihydrospiro[azetidine-3,1′-pyrrolo[2,3-c]quinolin]-8′-yl)-2-(2-(isopropylamino)ethoxy)pyridin-3-yl)methanesulfonamide] fall in the same range of pIC50: 7.00 to 9.00 for the first, 7.00 to 9.00 for the second.

CC(C)NCCOc1ncc(-c2cc3c4c(cnc3cc2F)N(C)C(=O)C42CN(C[C@H](O)CO)C2)cc1NS(C)(=O)=O [Example 510, (S)-N-(5-(1-(2,3-Dihydroxypropyl)-7′-fluoro-3′-methyl-2′-oxo-2′,3′-dihydrospiro[azetidine-3,1′-pyrrolo[2,3-c]quinolin]-8′-yl)-2-(2-(isopropylamino)ethoxy)pyridin-3-yl)methanesulfonamide] and CC(=O)N1CC2(C1)C(=O)N(C)c1cnc3cc(F)c(-c4cnc(OCCNC(C)C)c(NS(C)(=O)=O)c4)cc3c12 [Example 511, N-(5-(1-Acetyl-7′-fluoro-3′-methyl-2′-oxo-2′,3′-dihydrospiro[azetidine-3,1′-pyrrolo[2,3-c]quinolin]-8′-yl)-2-(2-(isopropylamino)ethoxy)pyridin-3-yl)methanesulfonamide] cannot be ordered by pIC50: under 7.00 for the first, under 7.00 for the second.

Compared with CC(C)NCCOc1ncc(-c2cc3c4c(cnc3cc2F)N(C)C(=O)C42CN(C(=O)C(C)C)C2)cc1NS(C)(=O)=O [Example 512, N-(5-(7′-Fluoro-1-isobutyryl-3′-methyl-2′-oxo-2′,3′-dihydrospiro[azetidine-3,1′-pyrrolo[2,3-c]quinolin]-8′-yl)-2-(2-(isopropylamino)ethoxy)pyridin-3-yl)methanesulfonamide], CC(C)NCCOc1ncc(-c2cc3c4c(cnc3cc2F)N(C)C(=O)C42CN(C(=O)OC(C)C)C2)cc1NS(C)(=O)=O [Example 514, Isopropyl 7′-fluoro-8′-(6-(2-(isopropylamino)ethoxy)-5-(methylsulfonamido)pyridin-3-yl)-3′-methyl-2′-oxo-2′,3′-dihydrospiro [azetidine-3,1′-pyrrolo[2,3-c]quinoline]-1-carboxylate] is higher in pIC50: under 7.00 for the first, 7.00 to 9.00 for the second. The second is the more potent here.

COC(=O)N1CC2(C1)C(=O)N(C)c1cnc3cc(F)c(-c4cnc(OCCNC(C)C)c(NS(C)(=O)=O)c4)cc3c12 [Example 513, Methyl7′-fluoro-8′-(6-(2-(isopropylamino)ethoxy)-5-(methylsulfonamido)pyridin-3-yl)-3′-methyl-2′-oxo-2′,3′-dihydrospiro[azetidine-3,1′-pyrrolo[2,3-c]quinoline]-1-carboxylate] and CC(C)NCCOc1ncc(-c2cc3c4c(cnc3cc2F)N(C)C(=O)C42CN(C(N)=O)C2)cc1NS(C)(=O)=O [Example 517, 7′-Fluoro-8′-(6-(2-(isopropylamino)ethoxy)-5-(methylsulfonamido)pyridin-3-yl)-3′-methyl-2′-oxo-2′,3′-dihydrospiro[azetidine-3,1′-pyrrolo[2,3-c]quinoline]-1-carboxamide] cannot be ordered by pIC50: under 7.00 for the first, under 7.00 for the second.

CC(C)NCCOc1ncc(-c2cc3c4c(cnc3cc2F)N(C)C(=O)C42CN(S(=O)(=O)c3ccccc3)C2)cc1NS(C)(=O)=O [Example 515] and CC(C)NCCOc1ncc(-c2cc3c4c(cnc3cc2F)N(C)C(=O)C42CN(C(=O)c3ccccc3)C2)cc1NS(C)(=O)=O [Example 516, N-(5-(1-Benzoyl-7′-fluoro-3′-methyl-2′-oxo-2′,3′-dihydrospiro[azetidine-3,1′-pyrrolo[2,3-c]quinolin]-8′-yl)-2-(2-(isopropylamino)ethoxy)pyridin-3-yl)methanesulfonamide] cannot be ordered by pIC50: under 7.00 for the first, under 7.00 for the second.

First: CC(C)NCCOc1ncc(-c2cc3c4c(cnc3cc2F)N(C)C(=O)C42CN(C(=O)N(C)C)C2)cc1NS(C)(=O)=O [Example 518, 7′-Fluoro-8′-(6-(2-(isopropylamino)ethoxy)-5-(methylsulfonamido)pyridin-3-yl)-N,N,3′-trimethyl-2′-oxo-2′,3′-dihydrospiro[azetidine-3,1′-pyrrolo[2,3-c]quinoline]-1-carboxamide]
Second: COc1cccc(N2CC3(C2)C(=O)N(C)c2cnc4cc(F)c(-c5cnc(OCCNC(C)C)c(NS(C)(=O)=O)c5)cc4c23)c1 [Example 534, N-(5-(7′-Fluoro-1-(3-methoxyphenyl)-3′-methyl-2′-oxo-2′,3′-dihydrospiro [azetidine-3,1′-pyrrolo[2,3-c]quinolin]-8′-yl)-2-(2-(isopropylamino)ethoxy)pyridin-3-yl)methanesulfonamide]
The pIC50 of the first is lower: under 7.00 for the first, 7.00 to 9.00 for the second.

Cc1cc(S(=O)(=O)Nc2cc(-c3cc4c5c(cnc4cc3F)N(C)C(=O)C53CN(c4ccccc4)C3)cnc2OCCNC(C)C)sn1 [Example 521] and CC(C)NCCOc1ncc(-c2cc3c4c(cnc3cc2F)N(C)C(=O)C42CN(c3cccc(C(F)(F)F)c3)C2)cc1NS(C)(=O)=O [Example 537, N-(5-(7′-Fluoro-3′-methyl-2′-oxo-1-(3-(trifluoromethyl)phenyl)-2′,3′-dihydrospiro[azetidine-3,1′-pyrrolo[2,3-c]quinolin]-8′-yl)-2-(2-(isopropylamino)ethoxy)pyridin-3-yl)methanesulfonamide] fall in the same range of pIC50: 7.00 to 9.00 for the first, 7.00 to 9.00 for the second.

CC(C)NCCOc1ncc(-c2cc3c4c(cnc3cc2F)N(C)C(=O)C42CN(c3ccc(C(C)(C)C)cc3)C2)cc1NS(C)(=O)=O [Example 531, N-(5-(1-(4-(ter-Butyl)phenyl)-7′-fluoro-3′-methyl-2′-oxo-2′,3′-dihydrospiro[azetidine-3,1′-pyrrolo[2,3-c]quinolin]-8′-yl)-2-(2-(isopropylamino)ethoxy)pyridin-3-yl)methanesulfonamide] and CC(C)NCCOc1ncc(-c2cc3c4c(cnc3cc2F)N(C)C(=O)C42CN(c3cccc(OC(F)(F)F)c3)C2)cc1NS(C)(=O)=O [Example 542, N-(5-(7′-Fluoro-3′-methyl-2′-oxo-1-(3-(trifluoromethoxy)phenyl)-2′,3′-dihydrospiro[azetidine-3,1′-pyrrolo[2,3-c]quinolin]-8′-yl)-2-(2-(isopropylamino)ethoxy)pyridin-3-yl)methanesulfonamide] fall in the same range of pIC50: 7.00 to 9.00 for the first, 7.00 to 9.00 for the second.
